Patent publication US6818780B2, “P-hydroxyphenyl propionic acid derivatives as antiproliferative agents” (Consejo Superior de Investigaciones Cientificas, priority 2000, dated 2004)

Test system: murine splenocytes
Assay: Test of lymphocyte proliferation: proliferation of murine splenocytes (tritiated thymidine incorporation)
Format: cell-based, Bal b/c mice
Details: for Proliferation of murine splenocytes, mitogen Con A 2.5 μg/ml (cpm ± DS) / Proliferation of murine splenocytes, mitogen LPS 10 μg/ml (cpm ± DS) / Proliferation of murine splenocytes, mitogen PHA 50 μg/ml (cpm ± DS) / Proliferation of murine splenocytes, mitogen a CD3 20 μg/ml (cpm ± DS): 72 h incubation
Procedure: Proliferation of Murine Splenocytes. Material and Methods
Test of Lymphocyte Proliferation
Culture medium: DMEM+penicillin 50 UI/ml+streptomycin 50 µg/ml+glutamine 2 mM+10% foetal calf serum (complete medium) (FLOW).
Bal b/c mice were used, male, aged 6-8 weeks (IFFA-CREDO).
The cell “pellet” is resuspended in complete medium at a concentration of 4×10^6 cells/ml
In a dish with 96 flat-bottom wells, seriated dilutions are made of the mitogen problem sample with or without “lactone” in a volume of […] in complete medium to which […] 2ME have been added. All the determinations are made in triplicate.
100 μl of the cell suspension are then added, leaving a final volume of 200 μl.
The dish is incubated in a stove at 37° C., 5% CO2 for 66 h.
Following that incubation period, 1 μCi of tritiated thymidine is added to each well.
The dish is again incubated for 6 h.
Once that new incubation period has ended, the dish is processed in a Skatron Harvester, using special Wathman filter paper for this.
The cpm are determined in a liquid scintillation counter.
Negative control: cells in the presence of complete culture medium.
Positive control: cells in the presence of some mitogen.
Arithmetic mean of cpm±standard deviation (1)
The statistical significance is determined by the Student t method.
The results are summarised in the following tables (the cpm are stated following a pulse of tritiated thymidine. The samples of splenocytes were cultivated for 72 h in the presence of mitogen and lactone at the stated concentrations).

[1] = murine splenocytes, 72 h with mitogen and lactone

Compound: C=C1C(=O)OC(CCc2ccc(OC)cc2)C1C (centres unmarked) [lactone]
- Proliferation of murine splenocytes, mitogen Con A 2.5 μg/ml (cpm ± DS) (Lactone 0.75 μg/ml): 131,523 cpm
- Proliferation of murine splenocytes, mitogen Con A 2.5 μg/ml (cpm ± DS) (Lactone 1.5 μg/ml): 150,400 cpm
- Proliferation of murine splenocytes, mitogen Con A 2.5 μg/ml (cpm ± DS) (Lactone 3 μg/ml): 92,600 ± 100 cpm
- Proliferation of murine splenocytes, mitogen Con A 2.5 μg/ml (cpm ± DS) (Lactone 6 μg/ml): 78,200 ± 725 cpm
- Proliferation of murine splenocytes, mitogen Con A 2.5 μg/ml (cpm ± DS) (Lactone 12 μg/ml): 370 ± 20 cpm
- Proliferation of murine splenocytes, mitogen Con A 2.5 μg/ml (cpm ± DS) (Lactone 25 μg/ml): 244 ± 15 cpm
- Proliferation of murine splenocytes, mitogen LPS 10 μg/ml (cpm ± DS) (Lactone 25 μg/ml): 3,200 ± 400 cpm
- Proliferation of murine splenocytes, mitogen PHA 50 μg/ml (cpm ± DS) (Lactone 25 μg/ml): 21,000 cpm
- Proliferation of murine splenocytes, mitogen a CD3 20 μg/ml (cpm ± DS) (Lactone 25 μg/ml): 5,600 ± 300 cpm
- Proliferation of murine splenocytes, mitogen Con A 2.5 μg/ml (cpm ± DS) (Lactone 50 μg/ml): 190 ± 10 cpm
- Proliferation of murine splenocytes, mitogen LPS 10 μg/ml (cpm ± DS) (Lactone 50 μg/ml): 2,700 ± 120 cpm
- Proliferation of murine splenocytes, mitogen PHA 50 μg/ml (cpm ± DS) (Lactone 50 μg/ml): 19,000 cpm
- Proliferation of murine splenocytes, mitogen a CD3 20 μg/ml (cpm ± DS) (Lactone 50 μg/ml): 1,235 ± 200 cpm
- Proliferation of murine splenocytes, mitogen Con A 2.5 μg/ml (cpm ± DS) (Lactone 100 μg/ml): 147 ± 10 cpm
- Proliferation of murine splenocytes, mitogen LPS 10 μg/ml (cpm ± DS) (Lactone 100 μg/ml): 614 ± 35 cpm
- Proliferation of murine splenocytes, mitogen PHA 50 μg/ml (cpm ± DS) (Lactone 100 μg/ml): 19,500 cpm
- Proliferation of murine splenocytes, mitogen a CD3 20 μg/ml (cpm ± DS) (Lactone 100 μg/ml): 285 ± 20 cpm
- Inhibition of proliferation induced by ConA, antiCD3 and LPS [1]: clearly demonstrated its capacity for inhibiting proliferation
- Inhibition of proliferation induced by PHA [1]: but not that induced by PHA
- Proliferative effect per se on murine splenocytes (no mitogen, range 100-0.75 μg/ml, sample dissolved in DMSO at 40.0 mg/ml): No effect
